System: PDC 899932-113-R3-J6 complex spheroid viability
Experiment: Anticancer human tumor 899932-113-R3-J6-PDC patient-derived melanoma cell line growth inhibition [RAS]
Settings: for IC50: curve of first compound; for viability, T/C: stronger effect = lower value; active = viability on the fitted dose curve at most 10% of control; inactive = the rest
Method in brief: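 Tumour cells grown as complex spheroids with HUVEC endothelial cells and mesenchymal stem cells, treated with RAS pathway inhibitor combinations. Each agent spans half-log steps from near clinical Cmax, or 10 microM where Cmax is unknown.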

[1] = second compound 0.000949 µM, first compound 0.0316 µM
[2] = second compound 0.000949 µM, first compound 0.1 µM
[3] = second compound 0.000949 µM, first compound 0.316 µM
[4] = second compound 0.000949 µM, first compound 1 µM
[5] = second compound 0.003 µM, first compound 0.0316 µM
[6] = second compound 0.003 µM, first compound 0.1 µM
[7] = second compound 0.003 µM, first compound 0.316 µM
[8] = second compound 0.003 µM, first compound 1 µM
[9] = second compound 0.00949 µM, first compound 0.0316 µM
[10] = second compound 0.00949 µM, first compound 0.1 µM
[11] = second compound 0.00949 µM, first compound 0.316 µM
[12] = second compound 0.00949 µM, first compound 1 µM
[13] = second compound 0.03 µM, first compound 0.0316 µM
[14] = second compound 0.03 µM, first compound 0.1 µM
[15] = second compound 0.03 µM, first compound 0.316 µM
[16] = second compound 0.03 µM, first compound 1 µM
[17] = second compound 0.0949 µM, first compound 0.0316 µM
[18] = second compound 0.0949 µM, first compound 0.1 µM
[19] = second compound 0.0949 µM, first compound 0.316 µM
[20] = second compound 0.0949 µM, first compound 1 µM
[21] = second compound 0.3 µM, first compound 0.0316 µM
[22] = second compound 0.3 µM, first compound 0.1 µM
[23] = second compound 0.3 µM, first compound 0.316 µM
[24] = second compound 0.3 µM, first compound 1 µM
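For viability, T/C in this document: spheroids exposed to agents for seven days before readout; 100% = DMSO vehicle control wells.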

CC(=O)OC12COC1CC(O)C1(C)C(=O)C(O)C3=C(C)C(OC(=O)C(O)C(NC(=O)OC(C)(C)C)c4ccccc4)CC(O)(C(OC(=O)c4ccccc4)C21)C3(C)C (stereo unspecified) + CCn1c(-c2cccnc2C(C)OC)c2c3cc(ccc31)N1CCOC(CC(NC(=O)C(C(C)C)N(C)C(=O)C3(F)CCN(C(=O)C#CC(C)(C)N(C)C)CC3)C(=O)N3CCCC(N3)C(=O)OCC(C)(C)C2)C1
< 31.6 nM: IC50 (second compound 0.000949 µM) | IC50 (second compound 0.003 µM) | IC50 (second compound 0.00949 µM) | IC50 (second compound 0.03 µM) | IC50 (second compound 0.0949 µM) | IC50 (second compound 0.3 µM)
inactive: viability, T/C [1] 31.4% | viability, T/C [2] 34.3% | viability, T/C [3] 33% | viability, T/C [4] 45.6% | viability, T/C (second compound 0.000949 µM, first compound 3.16 µM) 60.8% | viability, T/C (second compound 0.000949 µM, first compound 10 µM) 70.1% | viability, T/C [5] 29.2% | viability, T/C [6] 37.1% | viability, T/C [7] 36.8% | viability, T/C [8] 39.7% | viability, T/C (second compound 0.003 µM, first compound 3.16 µM) 58.7% | viability, T/C (second compound 0.003 µM, first compound 10 µM) 68.9% | viability, T/C [9] 33.8% | viability, T/C [10] 36.6% | viability, T/C [11] 35.1% | viability, T/C [12] 48.4% | viability, T/C (second compound 0.00949 µM, first compound 3.16 µM) 61% | viability, T/C (second compound 0.00949 µM, first compound 10 µM) 61% | viability, T/C [13] 34.9% | viability, T/C [14] 38% | viability, T/C [15] 32.9% | viability, T/C [16] 41.7% | viability, T/C (second compound 0.03 µM, first compound 3.16 µM) 67.3% | viability, T/C (second compound 0.03 µM, first compound 10 µM) 67.4% | viability, T/C [17] 34.8% | viability, T/C [18] 38.4% | viability, T/C [19] 37.3% | viability, T/C [20] 52.1% | viability, T/C (second compound 0.0949 µM, first compound 3.16 µM) 59.2% | viability, T/C (second compound 0.0949 µM, first compound 10 µM) 65.5% | viability, T/C [21] 28.9% | viability, T/C [22] 39.4% | viability, T/C [23] 40.8% | viability, T/C [24] 44.5% | viability, T/C (second compound 0.3 µM, first compound 3.16 µM) 64.3% | viability, T/C (second compound 0.3 µM, first compound 10 µM) 63.1%

CCc1c2c(nc3ccc(O)cc13)-c1cc3c(c(=O)n1C2)COC(=O)[C@]3(O)CC + CCn1c(-c2cccnc2C(C)OC)c2c3cc(ccc31)N1CCOC(CC(NC(=O)C(C(C)C)N(C)C(=O)C3(F)CCN(C(=O)C#CC(C)(C)N(C)C)CC3)C(=O)N3CCCC(N3)C(=O)OCC(C)(C)C2)C1
33.6 nM: IC50 (second compound 0.00949 µM) | IC50 (second compound 0.03 µM)
17.2 nM: IC50 (second compound 0.3 µM)
inactive: viability, T/C (second compound 0.000949 µM, first compound 0.000949 µM) 93.4% | viability, T/C (second compound 0.000949 µM, first compound 0.003 µM) 72% | viability, T/C (second compound 0.000949 µM, first compound 0.00949 µM) 56.4% | viability, T/C (second compound 0.000949 µM, first compound 0.03 µM) 46.1% | viability, T/C (second compound 0.000949 µM, first compound 0.0949 µM) 39.9% | viability, T/C (second compound 0.000949 µM, first compound 0.3 µM) 32.3% | viability, T/C (second compound 0.003 µM, first compound 0.000949 µM) 95.3% | viability, T/C (second compound 0.003 µM, first compound 0.003 µM) 69.1% | viability, T/C (second compound 0.003 µM, first compound 0.00949 µM) 57.8% | viability, T/C (second compound 0.003 µM, first compound 0.03 µM) 46.7% | viability, T/C (second compound 0.003 µM, first compound 0.0949 µM) 42.2% | viability, T/C (second compound 0.003 µM, first compound 0.3 µM) 31.1% | viability, T/C (second compound 0.00949 µM, first compound 0.000949 µM) 93.8% | viability, T/C (second compound 0.00949 µM, first compound 0.003 µM) 78.3% | viability, T/C (second compound 0.00949 µM, first compound 0.00949 µM) 61.4% | viability, T/C (second compound 0.00949 µM, first compound 0.03 µM) 53.6% | viability, T/C (second compound 0.00949 µM, first compound 0.0949 µM) 39.1% | viability, T/C (second compound 0.00949 µM, first compound 0.3 µM) 30.8% | viability, T/C (second compound 0.03 µM, first compound 0.000949 µM) 93.7% | viability, T/C (second compound 0.03 µM, first compound 0.003 µM) 83.6% | viability, T/C (second compound 0.03 µM, first compound 0.00949 µM) 59.1% | viability, T/C (second compound 0.03 µM, first compound 0.03 µM) 52.7% | viability, T/C (second compound 0.03 µM, first compound 0.0949 µM) 41.9% | viability, T/C (second compound 0.03 µM, first compound 0.3 µM) 29.7% | viability, T/C (second compound 0.0949 µM, first compound 0.000949 µM) 88.3% | viability, T/C (second compound 0.0949 µM, first compound 0.003 µM) 66.8% | viability, T/C (second compound 0.0949 µM, first compound 0.00949 µM) 54.1% | viability, T/C (second compound 0.0949 µM, first compound 0.03 µM) 45.4% | viability, T/C (second compound 0.0949 µM, first compound 0.0949 µM) 39.1% | viability, T/C (second compound 0.0949 µM, first compound 0.3 µM) 31.5% | viability, T/C (second compound 0.3 µM, first compound 0.000949 µM) 71.1% | viability, T/C (second compound 0.3 µM, first compound 0.003 µM) 66.5% | viability, T/C (second compound 0.3 µM, first compound 0.00949 µM) 52.8% | viability, T/C (second compound 0.3 µM, first compound 0.03 µM) 42.9% | viability, T/C (second compound 0.3 µM, first compound 0.0949 µM) 42.8% | viability, T/C (second compound 0.3 µM, first compound 0.3 µM) 32.2%
19.5 nM: IC50 (second compound 0.000949 µM)
19.9 nM: IC50 (second compound 0.003 µM)
15.7 nM: IC50 (second compound 0.0949 µM)

Nc1ccn(C2OC(CO)C(O)C2(F)F)c(=O)n1 (stereo unspecified) + CCn1c(-c2cccnc2C(C)OC)c2c3cc(ccc31)N1CCOC(CC(NC(=O)C(C(C)C)N(C)C(=O)C3(F)CCN(C(=O)C#CC(C)(C)N(C)C)CC3)C(=O)N3CCCC(N3)C(=O)OCC(C)(C)C2)C1
19.8 nM: IC50 (second compound 0.000949 µM)
20.9 nM: IC50 (second compound 0.0949 µM)
20.7 nM: IC50 (second compound 0.003 µM)
18.3 nM: IC50 (second compound 0.3 µM)
19.6 nM: IC50 (second compound 0.03 µM)
inactive: viability, T/C (second compound 0.000949 µM, first compound 0.00316 µM) 103% | viability, T/C (second compound 0.000949 µM, first compound 0.01 µM) 71.2% | viability, T/C [1] 35.9% | viability, T/C [2] 20.9% | viability, T/C [3] 17.4% | viability, T/C [4] 19.2% | viability, T/C (second compound 0.003 µM, first compound 0.00316 µM) 99.8% | viability, T/C (second compound 0.003 µM, first compound 0.01 µM) 74.8% | viability, T/C [5] 36.3% | viability, T/C [6] 17.1% | viability, T/C [7] 15.1% | viability, T/C [8] 17.8% | viability, T/C (second compound 0.00949 µM, first compound 0.00316 µM) 103% | viability, T/C (second compound 0.00949 µM, first compound 0.01 µM) 73.7% | viability, T/C [9] 36.4% | viability, T/C [10] 19.8% | viability, T/C [11] 16.1% | viability, T/C [12] 20.6% | viability, T/C (second compound 0.03 µM, first compound 0.00316 µM) 101% | viability, T/C (second compound 0.03 µM, first compound 0.01 µM) 70.3% | viability, T/C [13] 36.4% | viability, T/C [14] 19.2% | viability, T/C [15] 19% | viability, T/C [16] 19.8% | viability, T/C (second compound 0.0949 µM, first compound 0.00316 µM) 95.2% | viability, T/C (second compound 0.0949 µM, first compound 0.01 µM) 73.4% | viability, T/C [17] 37.4% | viability, T/C [18] 20.5% | viability, T/C [19] 19.3% | viability, T/C [20] 20.1% | viability, T/C (second compound 0.3 µM, first compound 0.00316 µM) 84.4% | viability, T/C (second compound 0.3 µM, first compound 0.01 µM) 69.4% | viability, T/C [21] 32.7% | viability, T/C [22] 20.8% | viability, T/C [23] 21.6% | viability, T/C [24] 25.9%
20.5 nM: IC50 (second compound 0.00949 µM)

From PubChem BioAssay AID2060895 (Molecular Pharmacology Branch, DTP, NCI, 2025)
